One may read the logD as lipophilicity at a set pH, counting ionised and neutral species. What is called solubility is how much of the substance goes into solution per volume. A low value points to little dissolved substance.

Converted amounts (≈) assume the structure as drawn.

This is an account of results in ChEMBL document CHEMBL1139234, “Optimization of monocarboxylate transporter 1 blockers through analysis and modulation of atropisomer interconversion properties” (J Med Chem, 2007).

One series is described as follows: physchem. Conditions: octanol/water.
Turning to `CC(C)Cn1c(=O)n(C)c(=O)c2c(C(=O)N3CC[C@@H](O)C3)c(Cc3ccnc4ccc(F)cc34)sc21`, the logD came out at 2.

As for `CC(C)Cn1c(=O)n(C)c(=O)c2c(C(=O)N3C[C@H](O)CO3)c(Cc3ccccc3C(F)(F)F)sc21`, the logD was found to be 3.2.

For `CNc1nc2ccccc2n1Cc1sc2c(c1C(=O)N1C[C@H](O)CO1)c(=O)n(C)c(=O)n2CC(C)C`, the logD is 1.8.

In the case of `CC(C)Cn1c(=O)n(C)c(=O)c2c(C(=O)N3CC[C@@H](O)C3)c(Oc3cccc4ccccc34)sc21`, the logD was 2.9.

`Cc1n[nH]c(C)c1Cc1sc2c(c1C(=O)N1C[C@H](O)CO1)c(=O)n(C)c(=O)n2CC(C)C`: the logD came out at 1.1.

`CC(C)Cn1c(=O)n(C)c(=O)c2c(C(=O)N3C[C@H](O)CO3)c(Cc3c[nH]c4ncccc34)sc21` gave a log distribution coefficient (logD) of 2.

`CON(C)C(=O)c1c(Cn2c(C)nc(Cl)c2Cl)sc2c1c(=O)n(C)c(=O)n2CC(C)C` came in with a logD of 2.3.

Take `CC(C)n1c(=O)n(C)c(=O)c2c(C(=O)N3CCS(=O)(=O)C3)c(Cc3ccccc3C(F)(F)F)sc21`: the logD was found to be 2.6.

Another series can be described thus: Solubility of the compound. The format is physicochemical.
Conditions: not given
`CC(C)Cn1c(=O)n(C)c(=O)c2c(C(=O)N3CC[C@@H](O)C3)c(Cc3ccnc4ccccc34)sc21`: the concentration in solution (solubility) was 500 µg/mL (≈ 1.02 mM).

Take `Cc1n[nH]c(C)c1Cc1sc2c(c1C(=O)N1C[C@H](O)CO1)c(=O)n(C)c(=O)n2CC(C)C`: the concentration in solution (solubility) came to 2900 µg/mL (≈ 6.28 mM).
